Measurements taken from the supplement of paper PMC10307832.

Key:
Assay in all cases: relative viability (nuclei count vs DMSO), 5 days (fraction); higher = more cells survive
[1] = compound: COC1=C(C=C(C=C1)C2=CC3=NC=CN3C(=N2)NC4=C(C=CC=N4)C(=O)N)OC [BAY61-3606] + Cc1nc(NC(=O)N2CCC[C@H]2C(N)=O)sc1-c1ccnc(C(C)(C)C(F)(F)F)c1 [Alpelisib] (partner 2 µM)
Summary of the method: (§1)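 Medians of duplicate plates are given as relative viability. That measure is the nuclei count in treated wells divided by the count in vehicle wells. Counts were taken on 4× images of lung cancer cell lines in 1536-well plates, 5 days after pin-tool dosing the day after seeding with one drug alone or a fixed anchor-drug dose plus five library-drug doses (not always all listed) in √10 steps.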

[2] = compound: COc1cccc2c1C(=O)c1c(O)c3c(c(O)c1C2=O)C[C@@](O)(C(=O)CO)C[C@@H]3O[C@H]1C[C@H](N)[C@H](O)[C@H](C)O1 [Doxorubicin] + C[C@@H](Oc1cc(-c2cnn(C3CCNCC3)c2)cnc1N)c1c(Cl)ccc(F)c1Cl [Crizotinib] (partner 1 µM)
Summary of the method: as §1

[3] = compound: COC1=C(C=C(C=C1)C2=CC3=NC=CN3C(=N2)NC4=C(C=CC=N4)C(=O)N)OC [BAY61-3606] + Cc1nc(Nc2ncc(C(=O)Nc3c(C)cccc3Cl)s2)cc(N2CCN(CCO)CC2)n1 [Dasatinib] (partner 0.075 µM)
Summary of the method: as §1

[4] = compound: COc1cccc2c1C(=O)c1c(O)c3c(c(O)c1C2=O)C[C@@](O)(C(=O)CO)C[C@@H]3O[C@H]1C[C@H](N)[C@H](O)[C@H](C)O1 [Doxorubicin] + COc1cc2c(Oc3ccc(NC(=O)C4(C(=O)Nc5ccc(F)cc5)CC4)cc3F)ccnc2cc1OCCCN1CCOCC1 [Foretinib] (partner 0.25 µM)
Summary of the method: as §1

Cell Line	relative viability ([1]; first compound 0.02 µM)	relative viability ([1]; first compound 0.06325 µM)	relative viability ([1]; first compound 0.2 µM)	relative viability ([1]; first compound 0.6325 µM)	relative viability ([1]; first compound 2 µM)	relative viability ([2]; first compound 0.001 µM)	relative viability ([2]; first compound 0.003162 µM)	relative viability ([2]; first compound 0.01 µM)	relative viability ([2]; first compound 0.03162 µM)	relative viability ([2]; first compound 0.1 µM)	relative viability ([3]; first compound 0.02 µM)	relative viability ([3]; first compound 0.06325 µM)	relative viability ([3]; first compound 0.2 µM)	relative viability ([3]; first compound 0.6325 µM)	relative viability ([3]; first compound 2 µM)	relative viability ([4]; first compound 0.001 µM)	relative viability ([4]; first compound 0.003162 µM)	relative viability ([4]; first compound 0.01 µM)	relative viability ([4]; first compound 0.03162 µM)	relative viability ([4]; first compound 0.1 µM)
HCC-44	0.866	0.909	0.806	0.997	0.833	0.868	0.915	0.824	0.81	0.785										
HCC-78	0.405	0.366	0.453	0.362	0.358	0.356	0.332	0.395	0.352	0.28	0.363	0.362	0.379	0.48	0.694	0.577	0.627	0.528	0.517	0.499
HCC-366	0.449	0.343	0.369	0.388	0.212		0.697	0.509	0.236	0.333	0.56	0.548	0.626	0.597	0.439		0.963	0.967	1.01	0.94
HCC-827	0.94	1.01	0.995	0.954	0.916	0.982	0.993	0.913	0.955	0.908	0.332	0.328	0.363	0.315	0.24	1.07	1	1.05	0.984	0.982
HOP-62	0.901		0.874	0.947	0.64	1.04	1.02	0.956	0.901	1.01	0.744	0.729	0.691	0.844	0.634	1.05	1.07	1.06	1.11	1.16
IA-LM	0.805		0.98	0.748	0.661	0.604	0.914	0.564	0.376	0.113						1.04	1.13	1.2	1.1	1.06
LC-2-ad	0.851	0.96	0.875	0.82	0.671	0.265	0.414	0.459	0.416	0.389	0.569	0.496	0.753	0.622	0.27	0.862	0.778	0.714	0.392	0.321
LCLC-97TM1	0.232		0.244	0.231	0.238	0.365	0.455	0.244	0.344	0.371	0.722	0.98	1.03	0.804	0.864	0.977	0.861	0.895	0.882	0.891
LCLC-103H	0.94	0.965	0.981	1.03	1.04	1.07	1.06	1.03	1.06	1.19	0.537	0.407	0.465	0.55	0.446	0.767	0.82	0.786	0.66	0.758
LK-2	1.11	0.874	1.17	1.15	0.996	0.29	0.223	0.235	0.227	0.272	0.334	0.217	0.347	0.368	0.379	1.2	1.32	0.904	0.826	1.41
NCI-H522											0.838	0.792	0.975	0.832	0.747					
NCI-H1299	1.05	1.08	1.07	1	1.03	0.952	0.981	0.939	0.874	0.49						1.1	1.11	1.1	1.16	1.05
NCI-H1395	1.16	0.957	1.07	1.04	0.97						0.385	0.404	0.387	0.383	0.399	0.949	1.05	0.953	0.892	0.92
NCI-H1623											0.556	0.557	0.533	0.522	0.501	0.766	0.815	0.895	0.798	0.78
NCI-H1650						0.925	0.903	0.283	0.181	0.13	0.304	0.261	0.3	0.296	0.245	0.967	1.38	0.859	0.291	0.181
NCI-H1703	0.377	0.385	0.317	0.305	0.218	0.578	0.789	0.365	0.179	0.0887							0.304	0.3		0.24
NCI-H1792	0.743	0.673	0.74	0.751	0.674	0.975	0.974	1.01	0.924	0.943	0.858	0.76	0.809	0.83	0.535					
NCI-H1793	0.817	0.782	0.64	0.882	0.839						0.365	0.357		0.32	0.427		0.881	0.63	0.531	0.594
NCI-H2342											0.297	0.32	0.319	0.311	0.367	1.08	1.08	1.06	0.791	1.17
SW 900											0.84	0.559	0.706	0.457	0.303	0.929	1.06	0.727	0.727	0.958
